Laboratory results from US7015177B2, “Solid formulation” (priority 2001, dated 2006).

Assays:
[1] = system: seeds
[2] = Thermal degradation of agrochemical; type: physicochemical
[3] = Solubility of agrochemical in solvent or melt; type: physicochemical; conditions: melt at about 65 to 70° C.

## CCCCCCCCCCCCCCCCCC(=O)O [stearic acid]
[1]
  retardation of germination: no significant retardation of germination

## CC1(C)[C@H](C(=O)O[C@H](C#N)c2cccc(Oc3ccccc3)c2)[C@@H]1/C=C(\Cl)C(F)(F)F (racemic) [lambda cyhalothrin]
[2]
  temperature above which it tends to degrade: > 100 °C

## CN1COCN(Cc2cnc(Cl)s2)/C1=N\[N+](=O)[O-] [thiamethoxam]
[3]
  solubility in melt of polyethylene glycol and methyl oleate: readily soluble
